# Measurements published in patent US12071411B2, “Inhibitors of HIF-2α and methods of use thereof” (ARCUS BIOSCIENCES, INC., priority 2021, dated 2024).
# pIC50: −log10 of the molar value.
# Tests used:
# HIF-2α [1] = target: T1, HIF-2α (Homo sapiens, UniProt Q99814); assay: HIF-2α Luciferase Reporter Assay (serum free) in HIF-Luc-786-0 cells; type: cell-based; conditions: Opti-MEM, 786-0 reporter cells, 20 hours incubation
# Description: (§1) Generation of HIF-2α Luciferase 786-0 Cell Line:
# (§2) Stable cell lines were generated by transducing 786-0 cells (ATCC, CRL-1932) with Cignal Lenti HIF Luc Reporter lentivirus (CLS-007L, Qiagen) according to the manufacturer's guidelines. In brief, 0.3×10^6 786-0 cells were transduced with lentivirus at a multiplicity of infection (MOI) of 25 for 24 hours. After transduction, cells were replenished with fresh RPMI 1640 Medium (Cat. No. 11875085, Thermo Fisher) supplemented with 10% FBS (Cat. No. A3160502, Gibco), 2 mM GlutaMAX™ (Cat. No. 35050-061, Invitrogen) and 100 units of penicillin and 100 μg of streptomycin/mL (Cat. No 15070063, Thermo Fisher) for another 24 hours. Antibiotic selection was performed in cell media containing 4 μg/mL of puromycin. After 7 days of antibiotic selection, stable pools of surviving cells were expanded and used in a luciferase reporter assay.
# HIF-2α Luciferase Reporter Assay (Serum Free):
# On day one, 20 uL of HIF-Luc-786-0 cells in Opti-MEM™ (Cat. No. 31985088, Thermo Fisher) were seeded into each well of a 384 well white opaque plate (Corning 3570) and incubated at 37° C. and 5% CO2. Twenty microliters of 2× test compounds in Opti-MEM™ were added to cells after 4 hours of incubation. Final assay conditions comprised 20,000 cells per well in 1% DMSO with test compound concentrations ranging from 50 uM to 0 uM. After 20 hours incubation at 37° C. and 5% CO2, luciferase activity was determined using ONE-Glo™ Luciferase Assay Reagent (E6110, Promega) following the manufacture's recommended procedure. Briefly, 40 uL of ONE-Glo™ luciferase reagents were added to each well and luciferase signals were measured using an Envision 2102 Multilabel Reader. Percentage maximum activity in each test well was calculated based on DMSO (maximum activity) and no cell control wells (baseline activity). The IC50 values of the test compounds were determined from compound dose response curves fitted using a standard four parameter fit equation.
# HIF-2α [2] = target: T1, HIF-2α; assay: HIF-2α Luciferase Reporter Assay (serum), HRE-luciferase 786-0 cells in 100% human serum; type: cell-based; conditions: for pIC50: 100% human serum, 786-0 reporter cells, overnight incubation, read-out: Serum Potency; for Serum Shift (approximate): ratio of IC50 in 100% serum to IC50 in serum free conditions
# Description: as §1, §2
# HIF-2α Luciferase Reporter Assay (Serum):
# An HRE-luciferase stable reporter 786-0 cell line was maintained in active culture using RPMI 1640 (GIBCO) media supplemented with 1% penicillin-streptomycin, 1% GlutaMAX™, 10% FBS-One Shot (GIBCO) and 4 ug/ml of puromycin (Invitrogen). On the day of the assay, cells were harvested using StemPro™ Accutase™ cell dissociation reagent (GIBCO) and resuspended at 1.5 million cells per milliliter in Opti-MEM™ (GIBCO). 20 ul/well of the resuspended cells were dispensed into a 384 white tissue culture-treated microplate (Corning) and allowed to incubate at 37° C., 5% CO2 for 3 hours. Compounds were prepared by dispensing 0.8 ul of compound in 100% DMSO into a Greiner plate containing 40 ul/well of 100% human serum (Bioreclamation IVT). After 3 hours, media was removed via centrifugation at 500 RPM for 30 seconds and 30 ul/well of compound diluted in human serum was added. The plate was incubated overnight at 37° C., 5% CO2. The following day, ONE-Glo™ was prepared per vendors instructions. The cell plate was removed from the incubator and the human serum was removed from the plate using centrifugation at 500 RPM for 30 seconds. Following the removal of human serum, 40 ul/well of room temperature Opti-MEM™ was added to the plate and allowed to equilibrate to room temperature for 2 hours. 40 ul/well of ONE-Glo™ reagent was added and allowed to incubate for 10 minutes before reading the luminescence signal on the Envision (PerkinElmer). Data was analyzed using 4-parameter logistic equation to generate IC50.
# T1 sequence (Q99814 whole entry): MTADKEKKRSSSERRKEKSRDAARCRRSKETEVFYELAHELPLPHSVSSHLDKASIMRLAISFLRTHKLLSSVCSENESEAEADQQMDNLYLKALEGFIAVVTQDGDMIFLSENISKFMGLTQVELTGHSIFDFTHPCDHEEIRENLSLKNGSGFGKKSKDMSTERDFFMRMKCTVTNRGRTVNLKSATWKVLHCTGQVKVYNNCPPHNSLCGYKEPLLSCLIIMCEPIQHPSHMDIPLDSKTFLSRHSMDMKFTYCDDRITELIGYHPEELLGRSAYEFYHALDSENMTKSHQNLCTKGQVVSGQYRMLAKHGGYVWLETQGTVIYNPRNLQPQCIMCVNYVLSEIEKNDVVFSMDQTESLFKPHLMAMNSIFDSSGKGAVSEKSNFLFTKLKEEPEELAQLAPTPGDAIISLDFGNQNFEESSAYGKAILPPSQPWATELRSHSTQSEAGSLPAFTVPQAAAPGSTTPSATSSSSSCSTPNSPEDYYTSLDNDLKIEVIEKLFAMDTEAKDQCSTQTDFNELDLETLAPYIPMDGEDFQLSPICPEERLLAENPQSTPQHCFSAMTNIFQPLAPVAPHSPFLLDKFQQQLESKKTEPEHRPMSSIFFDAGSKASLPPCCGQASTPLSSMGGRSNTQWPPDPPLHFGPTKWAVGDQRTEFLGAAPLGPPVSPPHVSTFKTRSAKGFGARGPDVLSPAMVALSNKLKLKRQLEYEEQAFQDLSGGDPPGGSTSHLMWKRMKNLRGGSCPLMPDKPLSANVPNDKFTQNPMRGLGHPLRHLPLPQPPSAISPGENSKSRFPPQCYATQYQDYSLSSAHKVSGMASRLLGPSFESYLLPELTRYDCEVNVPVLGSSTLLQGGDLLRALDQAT
SMILES,pIC50 (HIF-2α [1]),pIC50 (HIF-2α [2]),Serum Shift (approximate) (HIF-2α [2])
"O[C@H]1c2c(C(F)(F)F)nn([C@H]3C[C@H](COC(F)F)C3)c2CCC1(F)F [Example 104, (4S)-1-[3-(difluoromethoxymethyl)cyclobutyl]-5,5-difluoro-3-(trifluoromethyl)-6,7-dihydro-4H-indazol-4-ol]",6.00 to 7.00,< 6.00,20
"CO[C@H](CCn1nc(C(F)(F)F)c2c1[C@@H](F)C(F)(F)[C@H]2O)C(F)(F)F (single isomer, unassigned) [148/149 DIAST-2]",> 7.00,6.00 to 7.00,12
"O=S1(=O)CC(Cn2nc(C(F)(F)F)c3c2[C@@H](F)C(F)(F)[C@H]3O)C1 (single isomer, unassigned) [144/145 DIAST-2]",6.00 to 7.00,6.00 to 7.00,3
"O[C@H]1c2c(C(F)(F)F)nn(C3COCC(F)(F)C3)c2CC1(F)F (stereo partly drawn) [Example 85, (4S)-1-(5,5-difluorooxan-3-yl)-5,5-difluoro-3-(trifluoromethyl)-1H,4H,5H,6H-cyclopenta[c]pyrazol-4-ol]",6.00 to 7.00,< 6.00,6
"O[C@H]1c2c(C(F)(F)F)nn(C3CCC(F)(F)CC3)c2CC1(F)F [Example 53, (4S)-1-(4,4-difluorocyclohexyl)-5,5-difluoro-3-(trifluoromethyl)-4,6-dihydrocyclopenta[c]pyrazol-4-ol]",> 7.00,6.00 to 7.00,7
"F[C@H]1c2c(C(F)(F)F)nn(CCCC(F)(F)F)c2CCC1(F)F [Example 48, (4S)-4,5,5-trifluoro-1-(4,4,4-trifluorobutyl)-3-(trifluoromethyl)-6,7-dihydro-4H-indazole]",< 6.00,–,–
"O[C@H]1c2c(C(F)(F)F)nn(-c3ccc(C(F)(F)F)nc3)c2CC1(F)F [Example 68, (4S)-5,5-difluoro-3-(trifluoromethyl)-1-[6-(trifluoromethyl)pyridin-3-yl]-4,6-dihydrocyclopenta[c]pyrazol-4-ol]",> 7.00,–,–
"O[C@H]1c2c(C(F)(F)F)nn(CC(F)(F)C3CC3)c2CCC1(F)F [Example 28, (4S)-1-(2-cyclopropyl-2,2-difluoroethyl)-5,5-difluoro-3-(trifluoromethyl)-4,5,6,7-tetrahydro-1H-indazol-4-ol]",< 6.00,–,–
"CO[C@H](CCn1nc(S(C)(=O)=O)c2c1CC(F)(F)[C@H]2O)C(F)(F)F (racemic) [Example 107, (4S)-5,5-difluoro-3-methylsulfonyl-1-[(3R)-4,4,4-trifluoro-3-methoxybutyl]-4,6-dihydrocyclopenta[c]pyrazol-4-ol and (4S)-5,5-difluoro-3-methylsulfonyl-1-[(3S)-4,4,4-trifluoro-3-methoxybutyl]-4,6-dihydrocyclopenta[c]pyrazol-4-ol]",> 7.00,–,–
"O[C@H]1c2c(C(F)(F)F)nn([C@H]3CC[C@H](F)[C@H](F)C3)c2[C@H](F)C1(F)F (single isomer, unassigned) [Example 155]",< 6.00,–,–
"O[C@H]1c2c(C(F)(F)F)nn(C3CCCCC3)c2CCC1(F)F [Example 35, (4S)-1-cyclohexyl-5,5-difluoro-3-(trifluoromethyl)-6,7-dihydro-4H-indazol-4-ol]",< 6.00,–,–
"COCC(C)CCn1nc(C(F)(F)F)c2c1CCC(F)(F)[C@H]2O (stereo partly drawn) [Example 6, (4S)-5,5-difluoro-1-(4-methoxy-3-methylbutyl)-3-(trifluoromethyl)-6,7-dihydro-4H-indazol-4-ol]",< 6.00,–,–
"C[C@]1(OC(F)F)C[C@@H](Cn2nc(C(F)(F)F)c3c2CCC(F)(F)[C@H]3O)C1 [Example 19, (4S)-1-[[3-(difluoromethoxy)-3-methylcyclobutyl]methyl]-5,5-difluoro-3-(trifluoromethyl)-6,7-dihydro-4H-indazol-4-ol]",< 6.00,–,–
"O[C@H]1c2c(C(F)(F)F)nn([C@@H]3CCO[C@H](C(F)(F)F)C3)c2[C@@H](F)[C@H]1F (single isomer, unassigned) [150/151 DIAST-2]",< 6.00,–,–

# Further lines, results first:
pIC50 (HIF-2α [1]),pIC50 (HIF-2α [2]),Serum Shift (approximate) (HIF-2α [2]),SMILES
> 7.00,6.00 to 7.00,4,"O[C@H]1c2c(C(F)(F)F)nn(CCCOC(F)(F)F)c2CC[C@H]1F [Example 120, (4S,5R)-5-fluoro-1-[3-(trifluoromethoxy)propyl]-3-(trifluoromethyl)-4,5,6,7-tetrahydroindazol-4-ol]"
> 7.00,< 6.00,11,"O[C@H]1c2c(C(F)(F)F)nn(CCCC(F)(F)F)c2[C@H](F)C1(F)F (single isomer, unassigned) [Example 124]"
> 7.00,–,–,"O[C@H]1c2c(C(F)(F)F)nn([C@H]3CC[C@H](F)C[C@@H]3F)c2CC1(F)F (single isomer, unassigned) [97/98 DIAST-2]"
< 6.00,–,–,"CO[C@H]1CCCC[C@H]1n1nc(C(F)(F)F)c2c1CC(F)(F)[C@H]2O (racemic) [Example 69, (4S)-5,5-difluoro-1-[(1R,2S)-2-methoxycyclohexyl]-3-(trifluoromethyl)-4,6-dihydrocyclopenta[c]pyrazol-4-ol and (4S)-5,5-difluoro-1-[(1S,2R)-2-methoxycyclohexyl]-3-(trifluoromethyl)-4,6-dihydrocyclopenta[c]pyrazol-4-ol]"
> 7.00,6.00 to 7.00,6,"O[C@H]1c2c(C(F)(F)F)nn([C@H]3CCC[C@@H](F)C3)c2CC1(F)F (racemic) [90 DIAST-1, (4S)-5,5-difluoro-1-[(rel-1S,3R)-3-fluorocyclohexyl]-3-(trifluoromethyl)-4,6-dihydrocyclopenta[c]pyrazol-4-ol]"
6.00 to 7.00,< 6.00,49,"O[C@H]1c2c(C(F)(F)F)nn([C@H]3CCC[C@H](C(F)(F)F)C3)c2CC1(F)F [Example 81, (4S)-5,5-difluoro-3-(trifluoromethyl)-1-[(1S,3S)-3-(trifluoromethyl)cyclohexyl]-1H,4H,5H,6H-cyclopenta[c]pyrazol-4-ol]"
< 6.00,–,–,"O[C@H]1c2c(C(F)(F)F)nn(Cc3cc(C(F)(F)F)no3)c2CCC1(F)F [Example 4, (4S)-5,5-difluoro-3-(trifluoromethyl)-1-[[3-(trifluoromethyl)-1,2-oxazol-5-yl]methyl]-6,7-dihydro-4H-indazol-4-ol]"
< 6.00,–,–,"CCC(F)(F)Cn1nc(C(F)(F)F)c2c1CCC(F)(F)[C@H]2O [Example 29, (4S)-1-(2,2-difluorobutyl)-5,5-difluoro-3-(trifluoromethyl)-6,7-dihydro-4H-indazol-4-ol]"
< 6.00,–,–,"O[C@H]1c2c(C(F)(F)F)nn(C[C@@H](F)C3CC3)c2CCC1(F)F (single isomer, unassigned) [26/27 DIAST-1]"
< 6.00,–,–,"O[C@H]1c2c(C(F)(F)F)nn([C@H]3C[C@@H](COC(F)F)C3)c2CCC1(F)F [Example 105, (4S)-1-[3-(difluoromethoxymethyl)cyclobutyl]-5,5-difluoro-3-(trifluoromethyl)-6,7-dihydro-4H-indazol-4-ol]"
> 7.00,–,–,"O[C@H]1c2c(C(F)(F)F)nn([C@@H]3CCO[C@@H](C(F)(F)F)C3)c2CC1(F)F (single isomer, unassigned) [92/93 DIAST-1]"
< 6.00,–,–,"O[C@H]1c2c(C(F)(F)F)nn(CCC3CCCO3)c2CCC1(F)F (stereo partly drawn) [Example 34, (4S)-5,5-difluoro-1-[2-(oxolan-2-yl)ethyl]-3-(trifluoromethyl)-6,7-dihydro-4H-indazol-4-ol]"
